Measured values as given in publication PMC1794076, “Bioinorganic Chemistry in Thyroid Gland: Effect of Antithyroid Drugs on Peroxidase-Catalyzed Oxidation and Iodination Reactions” (Bioinorganic Chemistry and Applications, 2006).
Read-outs that look alike come from different tables or passages of the source.

Columns and labels:
lactoperoxidase (LPO) [1] = system: lactoperoxidase (LPO); set-up: method as in PMID 16248663; details: cited from earlier work
lactoperoxidase (LPO) [2] = target: lactoperoxidase (LPO); set-up: method as in PMID 16855736; details: cited from earlier work
[3] = set-up: method as in earlier work; details: cited from earlier work
[4] = set-up: method as in PMID 14995183, PMID 16248663; details: oxidizes in air to the corresponding diselenide; cited from earlier work
[5] = Glutathione peroxidase (GPx)-like reduction of H2O2 in the presence of thiols (GSH); assay type: biochemical; details: catalytic reduction of H2O2 with thiols such as GSH
Excerpt: Doerge and others have shown that mammalian peroxidases including LPO may activate the antithyroid drugs through S-oxygenation to produce the corresponding sulfoxides or sulfinic acids. They have also shown that the suicide inactivation of LPO and TPO by MMI proceeds through the S-oxygenation of the thione moiety to form a reactive sulfinic acid, which binds covalently to the prosthetic heme and irreversibly blocks enzyme activity. Given the higher reactivity of selenium compounds as compared with the sulfur derivatives toward oxidation, it is possible that the facile oxidation of the selenium compounds may lead to an efficient inhibition of LPO activity. […] The LPO activity was measured several times by increasing the time for the reaction of the test compounds with H2O2. Remarkably, MSeI (2) inhibited the enzyme within few seconds even at lower concentrations, which can be ascribed to the facile oxidation of the reactive selenolate group in 2 (MSeI) by H2O2 or by the oxidized enzyme. […] The initial rates (v0) derived from various concentrations of H2O2 were plotted against the concentration of H2O2. […] The reduction of H2O2 by 2 may become more efficient in the presence of suitable thiols such as GSH because this process may constitute a redox cycle involving a catalytic reduction of H2O2 (glutathione peroxidase (GPx) activity). […]

Cn1cc[nH]c1=S [MMI, methimazole]
Recovery of LPO activity at lower compound and higher H2O2 concentration (lactoperoxidase (LPO) [1]; 10 μM compound, 230 μM H2O2): could not be recovered | LPO activity in the presence of compound (lactoperoxidase (LPO) [1]; 40 μM compound, ABTS oxidation, Figure 3): completely inhibited | Recovery of LPO activity by increasing H2O2 concentration (lactoperoxidase (LPO) [1]; 40 μM compound, initial rates vs H2O2 concentration, LPO 6.5 nM, Figure 3): could not be recovered | IC50 (lactoperoxidase (LPO) [1]; LPO-catalyzed oxidation of ABTS with H2O2, concentration causing 50% inhibition, at least three independent experiments): 7 ± 1.1 µM | IC50 (lactoperoxidase (LPO) [2]; HPLC assay, KI, L-tyrosine, H2O2, LPO, fixed H2O2 concentration, read-out: IC50, inhibition of LPO-catalyzed iodination of L-tyrosine): 5.2 µM | hydrogen-bond (hard) basicity pk HB value [3]: 2.11

Cn1cc[nH]c1=[Se] [MSeI]
Stability of the zwitterionic form in air [4]: unstable | GPx activity (in words) [5]: high

CCCc1cc(=O)[nH]c(=S)[nH]1 [PTU, 6-n-propyl-2-thiouracil]
hydrogen-bond (hard) basicity pk HB value [3]: ~1.32

Cn1ccnc1[Se][Se]c1nccn1C [compound 8]
Inhibition of LPO-catalyzed oxidation (in words) (lactoperoxidase (LPO) [1]; identical experimental conditions as for the IC50 determination): does not show any noticeable inhibition | Inhibition of LPO-catalyzed iodination (in words) (lactoperoxidase (LPO) [2]; identical conditions as the IC50 determination): did not show any noticeable inhibition
